In patent publication US4420481A, “Use of piperazine compounds as immunopotentiating agents” (Mitsuitoatsu Chemicals Inc., priority 1980, dated 1983):
Structures can show the parent of a compound that is named as a salt.

Columns and labels:
[1] = system: adjuvant arthritis; test: Test 2: Adjuvant Arthritis Test; type: in vivo, SD male rats; conditions: rat, 5 mg/Kg subcutaneous, 9 times, left hind leg, * P<0.05, ** P<0.01
[2] = system: Sarcoma 180; test: Test 5: Test of Carcinostatic Effect to Sarcoma 180 by Subcutaneous Administration; type: in vivo, ICR female mice; conditions: 20 mg/Kg subcutaneous
Procedure: To the control group, a physiological saline solution was similarly administered. […] The diameter D (mm) of the tumor was measured, and the average value and the number N of the living mice were determined to obtain results shown in Table 4.

[3] = system: Sarcoma 180; test: Test 4: Test of Antitumor Effect to Sarcoma 180 by Oral Administration; type: in vivo, ICR female mice; conditions: for D: average diameter of tumor: 100 mg/Kg oral once a day, 10 days
Procedure: To the control group, a physiological saline solution was similarly administered. The dose of the compound was 100 mg per Kg of the body weight. The diameter D (mm) of the tumor was measured, and the average value and the number N of the living mice were determined to obtain results shown in Table 4.

[4] = system: delayed hypersensitivity; test: Test 1: Test of Reinforcement of Delayed Hypersensitivity; type: in vivo, ICR male mice; conditions: mouse
Source text: Various test systems using animals have been proposed for determining the immunopotensiative action. Results of the test of reinforcement of the delayed hypersensitivity, which is a typical test among these tests, will now be described.
This system was used for the test of reinforcement of the delayed hypersensitivity.
One groups of eight ICR male mice, each having a body weight of about 30 g, were used for the test.
Sensitization was effected by coating a 7% solution of picryl chloride in a 4/1 mixture of olive oil and acetone on the shaved abdomen of the mouse.
Simultaneously with sensitization, a solution or suspension of the compound of the present invention in a 0.2% solution of carboxymethyl cellulose in a physiological saline solution was orally administered to the mouse at a dose of 50 mg per Kg of the body weight. To the control group, a 0.2% carboxymethyl cellulose solution in a physiological saline solution was similarly administered.
The delayed hypersensitivity was challenged 7 days after sensitization by gripping the ear of the mouse by a forceps wrapped with a felt impregnated with a 1% solution of picryl chloride in olive oil and coating the ear with the solution. The thickness of the ear was measured before challenging and 24 hours after challenging and the ratio of increase of the thickness (average value of both the ears in eight mice±standard deviation) was obtained as shown in Table 1.
For comparison, the test was similarly carried out by using Levamisol hydrochloride, and the obtained results are shown in Table 1. F.t tests were carried out. The group in which the test result was significant at a level of P<0.05 was marked by *, and the group in which the test result was significant at a level of P<0.01 ws marked by **.

[5] = system: EL-4 leukemic cells; test: Test 3: In-Vitro Test of Inhibition of Growth of Cancer Cell by Macrophage; type: cell-based; conditions: for Take-In Ratio of 3H-thymidine (average value): 8 mg/Kg intraperitoneal to mice, macrophages collected after 4 days, with EL-4 cells, control 80.2
Procedure: The results of the test of the action of the effective ingredient of the present invention on the macrophage will now be described with reference to the following Test 3. More specifically, the separated macrophage and EL-4 leukemic cell were mixed and cultured, and ^3 H-thymidine was added to a culture medium and the quantity of ^3 H-thymidine incorporated into the EL-4 cell was determined to examine the activity of the macrophage. When the macrophage is activated by administration of the effective ingredient of the present invention, inhibition of the growth of EL-4 cell, that is, phagocytosis of the cancer cell by the macrophage, is observed. Accordingly, if the take-in amount of ^3 H-thymidine is measured and this amount is reduced, it is confirmed that the macrophage has been activated. […] The dose was 8 mg per Kg of the body weight. To the control group, a physiological saline solution was similarly administered. After passage of 4 days, exuded abdominal cells were collected and deposited on a plastic Petri dish to collect microphages. Then, 1×10^6 of so obtained macrophages and 1×10^5 of EL-4 leukemic cells of C57 BL/6J mouse were mixed with cultured in an RPM1 1640 culture medium to which 10% of bovine embryo serum was added (at 37° C. in the presence of 5% of CO2) for 24 hours. Then, 0.1μ Ci of ^3 H-thymidine was added and culturing was further conducted for 16 hours. Cells were collected on a filter paper from the culture medium and the amount of ^3 H-thymidine taken in was determined by a liquid scintillation counter. […] For comparison, the test was similarly carried out by using Levamisol hydrochloride. Results

[6] = 50 mg/Kg oral, 24 hours after challenge, * P<0.05, ** P<0.01, control 29.6 ± 1.9

`c1ccc([C@H]2CN3CCSC3=N2)cc1` [Levamisole.hydrochloride, reference compound] was tested, and the “Swelling Ratio (average value ± standard variation)” value (“Swelling Ratio” below) ([1]; 15 days, control 84.4 ± 9.0) was 65.2 ± 5.9%, the “Swelling Ratio” value ([1]; 18 days, control 103.2 ± 9.7) was 69.3 ± 7.1% and the “Swelling Ratio” value ([1]; 21 days, control 107.5 ± 13.3) was 80.7 ± 9.6%. For the same compound, the “N: number of living mice” value ([2]; 0 weeks, control 6) was 6, the “carcinostatic activity (in words)” value [2] was “no substantial carcinostatic activity” and the “N: number of living mice” value ([2]; 2 weeks, control 6) was 6. For the same compound, the “D: average diameter of tumor” value ([2]; 2 weeks, control 10.8) was 7.7 mm, the “N: number of living mice” value ([2]; 4 weeks, control 6) was 6 and the “D: average diameter of tumor” value ([2]; 4 weeks, control 16.6) was 14.8 mm. For the same compound, the “N: number of living mice” value ([2]; 6 weeks, control 6) was 6, the “D: average diameter of tumor” value ([2]; 6 weeks, control 20.3) was 14.4 mm and the “N: number of living mice” value ([2]; 8 weeks, control 4) was 3. For the same compound, the “D: average diameter of tumor” value ([2]; 8 weeks, control 31.2) was 30.2 mm, the “N: number of living mice” value ([2]; 10 weeks, control 1) was 2 and the “D: average diameter of tumor” value ([2]; 10 weeks, control 40.5) was 31.6 mm. For the same compound, the “N: number of living mice” value ([3]; 0 weeks, 100 mg/Kg oral, control 6) was 6, the “carcinostatic action (in words)” value ([3]; 100 mg/Kg oral, repeated) was “no substantial carcinostatic action was observed” and the “D: average diameter of tumor” value ([3]; 2 weeks, control 10.6) was 10.2 mm. The “N: number of living mice” value ([3]; 2 weeks, 100 mg/Kg oral, control 6) was 6, the “D: average diameter of tumor” value ([3]; 4 weeks, control 15.2) was 16.2 mm and the “N: number of living mice” value ([3]; 4 weeks, 100 mg/Kg oral, control 6) was 6. The “D: average diameter of tumor” value ([3]; 6 weeks, control 22.4) was 20.7 mm, the “N: number of living mice” value ([3]; 6 weeks, 100 mg/Kg oral, control 6) was 6 and the “D: average diameter of tumor” value ([3]; 8 weeks, control 31.5) was 29.6 mm. For the same compound, the “N: number of living mice” value ([3]; 8 weeks, 100 mg/Kg oral, control 5) was 6, the “D: average diameter of tumor” value ([3]; 10 weeks, control 37.6) was 28.1 mm and the “N: number of living mice” value ([3]; 10 weeks, 100 mg/Kg oral, control 1) was 6. For the same compound, the “Ratio of Increase of Ear Thickness (average value ± Standard Variation)” value (from here on “Ratio of Increase of Ear Thickness”) ([4]; in vivo) was 35.6 ± 2.4%, the “activation of macrophage / phagocytosis of cancer cells (in words)” value ([5]; 8 mg/Kg intraperitoneal) was “hardly exhibits such action” and the “inhibition of take-in of 3H-thymidine by EL-4 leukemic cells (in words)” value ([5]; 8 mg/Kg intraperitoneal) was “does not exhibit such action”. The “Take-In Ratio of 3H-thymidine (average value)” value [5] was 49.0%.
With `CN1CCN(C(=O)N2CCCC2)CC1` [drawing 7] the “Ratio of Increase of Ear Thickness” value [4, 6] was 36.7 ± 2.5%.
`CN1CCN(C(=O)N2CCCCC2)CC1` [drawing 8] was tested, and the “Ratio of Increase of Ear Thickness” value [4, 6] was 43.5 ± 2.8%.
With `O=C(N1CCCCC1)N1CCN(c2ccccc2)CC1` [drawing 9] the “Ratio of Increase of Ear Thickness” value [4, 6] was 45.0 ± 4.6%.
In the case of `CN1CCN(C(=O)N2CCCC2)CC1` [drawing 10], the “Swelling Ratio” value ([1]; 15 days, control 84.4 ± 9.0) is reported as 54.6 ± 11.3%, the “Swelling Ratio” value ([1]; 18 days, control 103.2 ± 9.7) is reported as 61.7 ± 13.0% and the “Swelling Ratio” value ([1]; 21 days, control 107.5 ± 13.3) is reported as 73.3 ± 14.6%.
For `CN1CCN(C(=O)N2CCCCC2)CC1` [drawing 11], the “Swelling Ratio” value ([1]; 15 days, control 84.4 ± 9.0) was 49.4 ± 10.3%, the “Swelling Ratio” value ([1]; 18 days, control 103.2 ± 9.7) was 62.0 ± 12.5% and the “Swelling Ratio” value ([1]; 21 days, control 107.5 ± 13.3) was 68.1 ± 14.0%.
`O=C(N1CCCCC1)N1CCN(c2ccccc2)CC1` [drawing 12] was tested, and the “Swelling Ratio” value ([1]; 15 days, control 84.4 ± 9.0) was 39.5 ± 11.7%, the “Swelling Ratio” value ([1]; 18 days, control 103.2 ± 9.7) was 56.1 ± 10.8% and the “Swelling Ratio” value ([1]; 21 days, control 107.5 ± 13.3) was 74.4 ± 13.9%.
`CN1CCN(C(=O)N2CCCC2)CC1` [drawing 13] was tested, and the “Take-In Ratio of 3H-thymidine (average value)” value [5] was 25.7%.
